Calls of active or inactive are those of the source. The calls are words filed in the database; no cut-off is given here.
Assays:
DU-145 [1] = assay: Cytotoxicity against human DU145 cells assessed as reduction in cell viability after 48 hrs by MTT assay; format: functional, cell-based; details: DU-145, 48 h
HeLa = assay: Cytotoxicity against human HeLa cells assessed as reduction in cell viability after 48 hrs by MTT assay; format: functional, cell-based
PC-3 [2] = assay: Cytotoxicity against human PC3 cells assessed as reduction in cell viability after 48 hrs by MTT assay; format: functional, cell-based; details: PC-3, 48 h
4T1 = assay: Cytotoxicity against mouse 4T1 cells assessed as reduction in cell viability after 48 hrs by MTT assay; format: functional, cell-based; details: 4T1, 48 h
HGC-27 = assay: Cytotoxicity against human HGC27 cells assessed as reduction in cell viability after 48 hrs by MTT assay; format: functional, cell-based; details: HGC-27, 48 h
NCI-H460 [3] = assay: Cytotoxicity against human NCI-H460 cells assessed as reduction in cell viability after 48 hrs by MTT assay; format: functional, cell-based; details: NCI-H460, 48 h
PC-3 [4] = assay: Cell cycle arrest in human PC3 cells assessed as accumulation at G2/M phase at 2 uM after 24 hrs by propidium iodide staining based flow cytometry (reference value: 34.49%); format: functional
PC-3 [5] = assay: Induction of apoptosis in human PC3 cells assessed as early apoptotic cells at 4 uM after 24 hrs by Annexin V-FITC/propidium iodide staining based flow cytometry (reference value: 7.1%); format: functional
PC-3 [6] = assay: Induction of apoptosis in human PC3 cells assessed as necrotic cells at 2 uM after 24 hrs by Annexin V-FITC/propidium iodide staining based flow cytometry (reference value: 0.28%); format: functional
PC-3 [7] = assay: Induction of apoptosis in human PC3 cells assessed as fragmentation of chromatin at 4 uM after 24 hrs by acridine orange/ethidium bromide staining based fluorescence microscopic method; format: functional, cell-based
PC-3 [8] = assay: Potency index, ratio of curcumin IC50 to compound IC50 for human PC3 cells; format: functional
PC-3 [9] = assay: Induction of apoptosis in human PC3 cells assessed as late apoptotic cells at 2 uM after 24 hrs by Annexin V-FITC/propidium iodide staining based flow cytometry (reference value: 7.8%); format: functional
PC-3 [10] = assay: Cell cycle arrest in human PC3 cells assessed as accumulation at sub-G1 phase at 4 uM after 24 hrs by propidium iodide staining based flow cytometry (reference value: 0.43%); format: functional
PC-3 [11] = assay: Cell cycle arrest in human PC3 cells assessed as accumulation at G0/G1 phase at 2 uM after 24 hrs by propidium iodide staining based flow cytometry (reference value: 55.61%); format: functional
PC-3 [12] = assay: Induction of apoptosis in human PC3 cells assessed as non-uniform distribution of chromatin at 2 uM after 24 hrs by acridine orange/ethidium bromide staining based fluorescence microscopic method; format: functional, cell-based
PC-3 [13] = assay: Cell cycle arrest in human PC3 cells assessed as accumulation at G0/G1 phase at 4 uM after 24 hrs by propidium iodide staining based flow cytometry (reference value: 55.61%); format: functional
NCI-H460 [14] = assay: Potency index, ratio of curcumin IC50 to compound IC50 for human NCI-H460 cells; format: functional
PC-3 [15] = assay: Induction of apoptosis in human PC3 cells assessed as cell membrane blebbing at 1 uM after 24 hrs by acridine orange/ethidium bromide staining based fluorescence microscopic method; format: functional
PC-3 [16] = assay: Induction of apoptosis in human PC3 cells assessed as live cells at 2 uM after 24 hrs by Annexin V-FITC/propidium iodide staining based flow cytometry (reference value: 84.82%); format: functional
PC-3 [17] = assay: Induction of apoptosis in human PC3 cells assessed as late apoptotic cells at 4 uM after 24 hrs by Annexin V-FITC/propidium iodide staining based flow cytometry (reference value: 7.8%); format: functional
PC-3 [18] = assay: Induction of apoptosis in human PC3 cells assessed as live cells at 4 uM after 24 hrs by Annexin V-FITC/propidium iodide staining based flow cytometry (reference value: 84.82%); format: functional
PC-3 [19] = assay: Cell cycle arrest in human PC3 cells assessed as accumulation at G2/M phase at 4 uM after 24 hrs by propidium iodide staining based flow cytometry (reference value: 34.49%); format: functional
PC-3 [20] = assay: Induction of apoptosis in human PC3 cells assessed as chromatin condensation at 1 uM after 24 hrs by acridine orange/ethidium bromide staining based fluorescence microscopic method; format: functional, cell-based
PC-3 [21] = assay: Cell cycle arrest in human PC3 cells assessed as accumulation at S phase at 4 uM after 24 hrs by propidium iodide staining based flow cytometry (reference value: 9.48%); format: functional
DU-145 [22] = assay: Potency index, ratio of curcumin IC50 to compound IC50 for human DU145 cells; format: functional
PC-3 [23] = assay: Cell cycle arrest in human PC3 cells assessed as accumulation at G2/M phase after 24 hrs by propidium iodide staining based flow cytometry; format: functional
PC-3 [24] = assay: Induction of ROS generation in human PC3 cells at 1 to 2 uM after 24 hrs by DCFDA staining based flow cytometry; format: functional, cell-based
PC-3 [25] = assay: Cell cycle arrest in human PC3 cells assessed as accumulation at S phase at 2 uM after 24 hrs by propidium iodide staining based flow cytometry (reference value: 9.48%); format: functional
PC-3 [26] = assay: Induction of apoptosis in human PC3 cells assessed as condensed and pyknotic nuclei formation at 4 uM after 24 hrs by DAPI staining based fluorescence microscopic method; format: functional, cell-based
PC-3 [27] = assay: Cell cycle arrest in human PC3 cells assessed as accumulation at sub-G1 phase at 2 uM after 24 hrs by propidium iodide staining based flow cytometry (reference value: 0.43%); format: functional
[28] = Aqueous solubility in milli-Q water at 2 mg incubated for 5 mins followed by sonication for 1 mins measured after 24 hrs by UV-Visible spectroscopic method; format: physicochemical
PC-3 [29] = assay: Induction of apoptosis in human PC3 cells assessed as necrotic cells at 4 uM after 24 hrs by Annexin V-FITC/propidium iodide staining based flow cytometry (reference value: 0.28%); format: functional
PC-3 [30] = assay: Induction of apoptosis in human PC3 cells assessed as early apoptotic cells at 2 uM after 24 hrs by Annexin V-FITC/propidium iodide staining based flow cytometry (reference value: 7.1%); format: functional

`COc1ccc(/C=C/C(=O)/C=C/c2cc3ccccc3nc2Oc2ccccc2)cc1` showed an IC50 (DU-145 [1]) of over 10 µM, an IC50 (HeLa) of over 10 µM and an IC50 (PC-3 [2]) of over 10 µM. For the same compound, the IC50 (4T1) was over 10 µM, the IC50 (HGC-27) was over 10 µM and the IC50 (NCI-H460 [3]) was over 10 µM.
`COc1cc(OC)c(OC)cc1/C=C/C(=O)/C=C/c1cc2ccccc2nc1Cl` gave an IC50 (DU-145 [1]) of 3.99 µM, an IC50 (HeLa) of 5.41 µM and an Activity (PC-3 [4]) of 38.16%. For the same compound, the Activity (PC-3 [5]) was 7.97%, the Activity (PC-3 [6]) was 2.21% and the Activity (PC-3 [7]) was “Active”. For the same compound, the “Ratio IC50” value (PC-3 [8]) was 6, the Activity (PC-3 [9]) was 18.51% and the Activity (PC-3 [10]) was 0.6%. For the same compound, the Activity (PC-3 [11]) was 50.4%, the IC50 (PC-3 [2]) was 3.12 µM and the Activity (PC-3 [12]) was “Active”. For the same compound, the Activity (PC-3 [13]) was 46.86%, the “Ratio IC50” value (NCI-H460 [14]) was 4.3 and the Activity (PC-3 [15]) was “Active”. For the same compound, the IC50 (4T1) was 1.81 µM, the IC50 (HGC-27) was 8.73 µM and the Activity (PC-3 [16]) was 73.21%. It also gave an Activity (PC-3 [17]) of 29.17%, an Activity (PC-3 [18]) of 60.06% and an Activity (PC-3 [19]) of 45.74%. The Activity (PC-3 [20]) was “Active”, the Activity (PC-3 [21]) was 6.86% and the IC50 (NCI-H460 [3]) was 3.96 µM. The “Ratio IC50” value (DU-145 [22]) was 8.3, the Activity (PC-3 [23]) was “Dose-dependent effect” and the Activity (PC-3 [24]) was “Active”. For the same compound, the Activity (PC-3 [25]) was 10.02%, the Activity (PC-3 [26]) was “Active” and the Activity (PC-3 [27]) was 0.9%. The solubility [28] was “Soluble”, the Activity (PC-3 [29]) was 2.8% and the Activity (PC-3 [30]) was 6.07%.
Compound `COc1ccc(/C=C/C(=O)/C=C/c2cc3ccccc3nc2Oc2ccccc2)cc1OC` has an IC50 (DU-145 [1]) of over 10 µM, an IC50 (HeLa) of over 10 µM and an IC50 (PC-3 [2]) of over 10 µM. The IC50 (4T1) was over 10 µM, the IC50 (HGC-27) was over 10 µM and the IC50 (NCI-H460 [3]) was over 10 µM.
For `COc1cc(OC)c(/C=C/C(=O)/C=C/c2cc3ccccc3nc2Oc2cccc(Cl)c2)c(OC)c1`, the IC50 (DU-145 [1]) was over 10 µM, the IC50 (HeLa) was over 10 µM and the IC50 (PC-3 [2]) was over 10 µM. It also gave an IC50 (4T1) of over 10 µM, an IC50 (HGC-27) of over 10 µM and an IC50 (NCI-H460 [3]) of over 10 µM.
For `COc1cc(OC)c(OC)cc1/C=C/C(=O)/C=C/c1cc2ccccc2nc1Oc1cccc(Cl)c1`, the IC50 (DU-145 [1]) was over 10 µM, the IC50 (HeLa) was over 10 µM and the IC50 (PC-3 [2]) was over 10 µM. It also gave an IC50 (4T1) of over 10 µM, an IC50 (HGC-27) of over 10 µM and an IC50 (NCI-H460 [3]) of over 10 µM.
For `COc1cc(/C=C/C(=O)CC(=O)/C=C/c2ccc(O)c(OC)c2)ccc1O` [CURCUMIN], the IC50 (DU-145 [1]) was 33.1 µM, the IC50 (PC-3 [2]) was 18.7 µM and the IC50 (NCI-H460 [3]) was 17.1 µM. The solubility [28] was “Soluble”.
Work on `COc1ccc(/C=C/C(=O)/C=C/c2cc3ccccc3nc2Oc2ccc(Br)cc2)cc1OC` yielded an IC50 (DU-145 [1]) of over 10 µM, an IC50 (HeLa) of over 10 µM and an IC50 (PC-3 [2]) of over 10 µM. For the same compound, the IC50 (4T1) was over 10 µM, the IC50 (HGC-27) was over 10 µM and the IC50 (NCI-H460 [3]) was over 10 µM.
In the case of `COc1ccc(OC)c(/C=C/C(=O)/C=C/c2cc3ccccc3nc2Oc2ccc(Br)cc2)c1`, the IC50 (DU-145 [1]) is reported as over 10 µM, the IC50 (HeLa) is reported as over 10 µM and the IC50 (PC-3 [2]) is reported as over 10 µM. The IC50 (4T1) was over 10 µM, the IC50 (HGC-27) was over 10 µM and the IC50 (NCI-H460 [3]) was over 10 µM.
For `COc1ccc(/C=C/C(=O)/C=C/c2cc3ccccc3nc2Oc2cccc(Cl)c2)c(OC)c1`, the IC50 (DU-145 [1]) was over 10 µM, the IC50 (HeLa) was over 10 µM and the IC50 (PC-3 [2]) was over 10 µM. It also gave an IC50 (4T1) of over 10 µM, an IC50 (HGC-27) of over 10 µM and an IC50 (NCI-H460 [3]) of over 10 µM.
With `COc1cc(OC)c(/C=C/C(=O)/C=C/c2cc3ccccc3nc2Oc2ccc(Br)cc2)c(OC)c1` the IC50 (DU-145 [1]) was over 10 µM, the IC50 (HeLa) was over 10 µM and the IC50 (PC-3 [2]) was over 10 µM. The IC50 (4T1) was over 10 µM, the IC50 (HGC-27) was over 10 µM and the IC50 (NCI-H460 [3]) was over 10 µM.
In the case of `COc1ccc(/C=C/C(=O)/C=C/c2cc3ccccc3nc2Oc2cccc(Cl)c2)cc1OC`, the IC50 (DU-145 [1]) is reported as over 10 µM, the IC50 (HeLa) is reported as over 10 µM and the IC50 (PC-3 [2]) is reported as over 10 µM. For the same compound, the IC50 (4T1) was over 10 µM, the IC50 (HGC-27) was over 10 µM and the IC50 (NCI-H460 [3]) was over 10 µM.

— ChEMBL document CHEMBL4184276, “Curcumin inspired 2-chloro/phenoxy quinoline analogues: Synthesis and biological evaluation as potential anticancer agents” (Bioorg Med Chem Lett, 2018)
